Experimental data as given in doi:10.1101/2024.08.13.607785v1 (biorxiv, 2024).

Tests used:
[1] = target: Cyclin-dependent kinase 19 ; CDK19 ; Q9BWU1 (Homo sapiens, UniProt Q9BWU1); assay: biochemical; parameters: species or system human cell line lysate
[2] = target: T1, Cyclin-dependent kinase-like 5 ; CDKL5 ; O76039 (Homo sapiens, UniProt O76039); assay: biochemical; parameters: species or system human cell line lysate
T1 sequence (O76039 1-960): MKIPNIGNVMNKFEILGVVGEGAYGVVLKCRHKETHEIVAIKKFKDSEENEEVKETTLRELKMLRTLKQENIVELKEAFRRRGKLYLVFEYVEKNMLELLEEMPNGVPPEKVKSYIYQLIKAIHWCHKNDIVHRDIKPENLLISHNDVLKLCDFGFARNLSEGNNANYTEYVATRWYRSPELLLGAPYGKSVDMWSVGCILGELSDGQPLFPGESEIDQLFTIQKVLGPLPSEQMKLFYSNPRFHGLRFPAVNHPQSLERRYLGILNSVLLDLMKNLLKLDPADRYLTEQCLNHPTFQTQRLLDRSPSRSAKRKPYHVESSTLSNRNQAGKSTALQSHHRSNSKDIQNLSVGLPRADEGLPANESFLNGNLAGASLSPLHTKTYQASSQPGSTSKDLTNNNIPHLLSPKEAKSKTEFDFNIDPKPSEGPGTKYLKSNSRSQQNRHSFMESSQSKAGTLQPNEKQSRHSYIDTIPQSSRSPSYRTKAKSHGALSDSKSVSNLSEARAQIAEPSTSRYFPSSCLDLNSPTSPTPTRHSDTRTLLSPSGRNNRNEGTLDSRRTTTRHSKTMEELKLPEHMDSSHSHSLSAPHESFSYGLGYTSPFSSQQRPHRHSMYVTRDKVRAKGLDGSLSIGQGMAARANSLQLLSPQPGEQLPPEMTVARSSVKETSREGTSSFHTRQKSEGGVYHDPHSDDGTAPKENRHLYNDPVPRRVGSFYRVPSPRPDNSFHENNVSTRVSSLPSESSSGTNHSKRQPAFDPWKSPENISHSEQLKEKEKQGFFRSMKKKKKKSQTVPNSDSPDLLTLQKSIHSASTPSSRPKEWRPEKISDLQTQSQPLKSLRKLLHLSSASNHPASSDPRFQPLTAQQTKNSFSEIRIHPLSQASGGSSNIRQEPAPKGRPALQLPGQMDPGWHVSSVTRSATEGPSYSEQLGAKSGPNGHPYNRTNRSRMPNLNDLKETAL

[3] = target: Cyclin-dependent kinase 13 ; CDK13 ; Q14004 (Homo sapiens, UniProt Q14004); assay: biochemical; parameters: species or system human cell line lysate
Cyclin-dependent kinase 13 ; CDK13 ; Q14004, sequence (Q14004 whole entry, one chain of several): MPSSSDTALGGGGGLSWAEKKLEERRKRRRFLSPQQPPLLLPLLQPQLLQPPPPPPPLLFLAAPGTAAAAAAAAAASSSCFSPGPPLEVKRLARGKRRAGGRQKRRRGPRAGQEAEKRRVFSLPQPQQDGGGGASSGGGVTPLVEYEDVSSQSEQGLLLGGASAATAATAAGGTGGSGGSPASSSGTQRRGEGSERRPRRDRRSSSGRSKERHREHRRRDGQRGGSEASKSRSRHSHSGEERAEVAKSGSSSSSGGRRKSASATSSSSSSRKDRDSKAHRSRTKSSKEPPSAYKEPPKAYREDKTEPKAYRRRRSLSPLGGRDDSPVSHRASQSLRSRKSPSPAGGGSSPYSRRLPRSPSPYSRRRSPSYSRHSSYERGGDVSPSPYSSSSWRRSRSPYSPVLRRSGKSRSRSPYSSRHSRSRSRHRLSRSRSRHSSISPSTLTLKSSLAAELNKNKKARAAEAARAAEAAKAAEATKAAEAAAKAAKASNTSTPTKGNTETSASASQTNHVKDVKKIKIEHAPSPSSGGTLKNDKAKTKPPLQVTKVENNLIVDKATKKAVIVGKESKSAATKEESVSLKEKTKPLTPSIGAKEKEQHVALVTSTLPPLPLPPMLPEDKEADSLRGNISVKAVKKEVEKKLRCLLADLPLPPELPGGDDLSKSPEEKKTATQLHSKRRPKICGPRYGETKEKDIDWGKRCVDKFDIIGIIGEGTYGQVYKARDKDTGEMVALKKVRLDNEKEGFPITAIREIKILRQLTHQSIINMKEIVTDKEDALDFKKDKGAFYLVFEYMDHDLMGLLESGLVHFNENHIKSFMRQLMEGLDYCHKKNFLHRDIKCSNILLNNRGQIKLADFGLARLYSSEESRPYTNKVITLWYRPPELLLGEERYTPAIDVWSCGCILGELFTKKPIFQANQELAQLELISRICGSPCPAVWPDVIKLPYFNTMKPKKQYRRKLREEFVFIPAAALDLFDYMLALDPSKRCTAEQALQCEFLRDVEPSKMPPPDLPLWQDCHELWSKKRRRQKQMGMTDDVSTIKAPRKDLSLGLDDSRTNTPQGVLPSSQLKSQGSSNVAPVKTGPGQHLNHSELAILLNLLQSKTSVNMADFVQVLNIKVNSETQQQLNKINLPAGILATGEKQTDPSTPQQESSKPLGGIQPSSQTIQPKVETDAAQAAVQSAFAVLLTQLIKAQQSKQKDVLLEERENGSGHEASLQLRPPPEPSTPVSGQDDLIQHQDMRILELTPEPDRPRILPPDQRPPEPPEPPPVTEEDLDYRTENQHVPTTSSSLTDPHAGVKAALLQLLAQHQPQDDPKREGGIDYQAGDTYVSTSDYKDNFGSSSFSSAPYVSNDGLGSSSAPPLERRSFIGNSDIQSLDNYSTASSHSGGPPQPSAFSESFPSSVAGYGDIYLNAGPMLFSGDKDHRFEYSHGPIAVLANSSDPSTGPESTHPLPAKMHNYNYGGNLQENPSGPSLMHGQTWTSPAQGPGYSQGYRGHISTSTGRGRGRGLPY

[4] = target: Calcium/calmodulin-dependent protein kinase kinase 1 ; CAMKK1 ; Q8N5S9 (Homo sapiens, UniProt Q8N5S9); assay: biochemical; parameters: species or system human cell line lysate
Calcium/calmodulin-dependent protein kinase kinase 1 ; CAMKK1 ; Q8N5S9, sequence (Q8N5S9 whole entry, one chain of several): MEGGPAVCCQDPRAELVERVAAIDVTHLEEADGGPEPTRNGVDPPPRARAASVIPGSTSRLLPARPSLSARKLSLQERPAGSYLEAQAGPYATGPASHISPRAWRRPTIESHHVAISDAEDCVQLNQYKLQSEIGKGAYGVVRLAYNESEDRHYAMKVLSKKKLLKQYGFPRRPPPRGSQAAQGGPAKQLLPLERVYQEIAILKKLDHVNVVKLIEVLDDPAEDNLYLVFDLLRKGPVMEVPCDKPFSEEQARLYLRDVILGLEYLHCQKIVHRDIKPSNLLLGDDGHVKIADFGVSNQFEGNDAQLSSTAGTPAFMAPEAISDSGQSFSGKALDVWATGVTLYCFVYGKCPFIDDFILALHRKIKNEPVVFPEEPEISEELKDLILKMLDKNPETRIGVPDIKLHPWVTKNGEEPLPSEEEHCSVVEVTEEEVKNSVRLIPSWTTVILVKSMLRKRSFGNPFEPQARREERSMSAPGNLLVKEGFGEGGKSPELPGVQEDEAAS

[5] = target: Tyrosine-protein kinase Yes ; YES1 ; P07947 (Homo sapiens, UniProt P07947); parameters: species or system mixed lysate of K562, MV4-11, THP-1, NCI-H1155; conditions: binder
[6] = target: Isoform 3 of Serine/threonine-protein kinase SIK3 ; SIK3-7 ; Q9Y2K2-7 (Homo sapiens, UniProt Q9Y2K2); parameters: species or system mixed lysate of K562, MV4-11, THP-1, NCI-H1155; conditions: DDA-MS residual binding; binder
[7] = target: Mitogen-activated protein kinase 14 ; MAPK14-2 ; Q16539-2 (Homo sapiens, UniProt Q16539); parameters: species or system mixed lysate of K562, MV4-11, THP-1, NCI-H1155; conditions: DDA-MS residual binding; binder
Mitogen-activated protein kinase 14 ; MAPK14-2 ; Q16539-2, sequence (Q16539 whole entry): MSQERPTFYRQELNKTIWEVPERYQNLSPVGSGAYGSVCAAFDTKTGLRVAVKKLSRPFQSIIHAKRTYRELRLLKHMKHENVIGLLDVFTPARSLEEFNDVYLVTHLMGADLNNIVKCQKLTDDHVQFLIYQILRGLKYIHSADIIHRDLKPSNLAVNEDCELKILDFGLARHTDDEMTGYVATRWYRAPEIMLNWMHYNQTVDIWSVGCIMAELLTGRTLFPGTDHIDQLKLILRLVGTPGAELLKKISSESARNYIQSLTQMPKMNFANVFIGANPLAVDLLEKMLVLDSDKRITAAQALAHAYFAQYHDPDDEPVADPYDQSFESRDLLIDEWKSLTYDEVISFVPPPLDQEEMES

[8] = target: Tyrosine-protein kinase CSK ; CSK ; P41240 (Homo sapiens, UniProt P41240); parameters: species or system mixed lysate of K562, MV4-11, THP-1, NCI-H1155; conditions: binder
[9] = target: Tyrosine-protein kinase Fyn ; FYN ; P06241 (Homo sapiens, UniProt P06241); parameters: species or system mixed lysate of K562, MV4-11, THP-1, NCI-H1155; conditions: DDA-MS residual binding; binder
[10] = target: Tyrosine-protein kinase HCK ; HCK ; P08631 (Homo sapiens, UniProt P08631); parameters: species or system mixed lysate of K562, MV4-11, THP-1, NCI-H1155; conditions: DDA-MS residual binding; binder
[11] = target: Phosphatidylinositol 4-kinase alpha ; PI4KA ; P42356 (Homo sapiens, UniProt P42356); parameters: species or system mixed lysate of K562, MV4-11, THP-1, NCI-H1155; conditions: DDA-MS residual binding; binder
Phosphatidylinositol 4-kinase alpha ; PI4KA ; P42356, sequence (P42356 whole entry, the tested form may be a part): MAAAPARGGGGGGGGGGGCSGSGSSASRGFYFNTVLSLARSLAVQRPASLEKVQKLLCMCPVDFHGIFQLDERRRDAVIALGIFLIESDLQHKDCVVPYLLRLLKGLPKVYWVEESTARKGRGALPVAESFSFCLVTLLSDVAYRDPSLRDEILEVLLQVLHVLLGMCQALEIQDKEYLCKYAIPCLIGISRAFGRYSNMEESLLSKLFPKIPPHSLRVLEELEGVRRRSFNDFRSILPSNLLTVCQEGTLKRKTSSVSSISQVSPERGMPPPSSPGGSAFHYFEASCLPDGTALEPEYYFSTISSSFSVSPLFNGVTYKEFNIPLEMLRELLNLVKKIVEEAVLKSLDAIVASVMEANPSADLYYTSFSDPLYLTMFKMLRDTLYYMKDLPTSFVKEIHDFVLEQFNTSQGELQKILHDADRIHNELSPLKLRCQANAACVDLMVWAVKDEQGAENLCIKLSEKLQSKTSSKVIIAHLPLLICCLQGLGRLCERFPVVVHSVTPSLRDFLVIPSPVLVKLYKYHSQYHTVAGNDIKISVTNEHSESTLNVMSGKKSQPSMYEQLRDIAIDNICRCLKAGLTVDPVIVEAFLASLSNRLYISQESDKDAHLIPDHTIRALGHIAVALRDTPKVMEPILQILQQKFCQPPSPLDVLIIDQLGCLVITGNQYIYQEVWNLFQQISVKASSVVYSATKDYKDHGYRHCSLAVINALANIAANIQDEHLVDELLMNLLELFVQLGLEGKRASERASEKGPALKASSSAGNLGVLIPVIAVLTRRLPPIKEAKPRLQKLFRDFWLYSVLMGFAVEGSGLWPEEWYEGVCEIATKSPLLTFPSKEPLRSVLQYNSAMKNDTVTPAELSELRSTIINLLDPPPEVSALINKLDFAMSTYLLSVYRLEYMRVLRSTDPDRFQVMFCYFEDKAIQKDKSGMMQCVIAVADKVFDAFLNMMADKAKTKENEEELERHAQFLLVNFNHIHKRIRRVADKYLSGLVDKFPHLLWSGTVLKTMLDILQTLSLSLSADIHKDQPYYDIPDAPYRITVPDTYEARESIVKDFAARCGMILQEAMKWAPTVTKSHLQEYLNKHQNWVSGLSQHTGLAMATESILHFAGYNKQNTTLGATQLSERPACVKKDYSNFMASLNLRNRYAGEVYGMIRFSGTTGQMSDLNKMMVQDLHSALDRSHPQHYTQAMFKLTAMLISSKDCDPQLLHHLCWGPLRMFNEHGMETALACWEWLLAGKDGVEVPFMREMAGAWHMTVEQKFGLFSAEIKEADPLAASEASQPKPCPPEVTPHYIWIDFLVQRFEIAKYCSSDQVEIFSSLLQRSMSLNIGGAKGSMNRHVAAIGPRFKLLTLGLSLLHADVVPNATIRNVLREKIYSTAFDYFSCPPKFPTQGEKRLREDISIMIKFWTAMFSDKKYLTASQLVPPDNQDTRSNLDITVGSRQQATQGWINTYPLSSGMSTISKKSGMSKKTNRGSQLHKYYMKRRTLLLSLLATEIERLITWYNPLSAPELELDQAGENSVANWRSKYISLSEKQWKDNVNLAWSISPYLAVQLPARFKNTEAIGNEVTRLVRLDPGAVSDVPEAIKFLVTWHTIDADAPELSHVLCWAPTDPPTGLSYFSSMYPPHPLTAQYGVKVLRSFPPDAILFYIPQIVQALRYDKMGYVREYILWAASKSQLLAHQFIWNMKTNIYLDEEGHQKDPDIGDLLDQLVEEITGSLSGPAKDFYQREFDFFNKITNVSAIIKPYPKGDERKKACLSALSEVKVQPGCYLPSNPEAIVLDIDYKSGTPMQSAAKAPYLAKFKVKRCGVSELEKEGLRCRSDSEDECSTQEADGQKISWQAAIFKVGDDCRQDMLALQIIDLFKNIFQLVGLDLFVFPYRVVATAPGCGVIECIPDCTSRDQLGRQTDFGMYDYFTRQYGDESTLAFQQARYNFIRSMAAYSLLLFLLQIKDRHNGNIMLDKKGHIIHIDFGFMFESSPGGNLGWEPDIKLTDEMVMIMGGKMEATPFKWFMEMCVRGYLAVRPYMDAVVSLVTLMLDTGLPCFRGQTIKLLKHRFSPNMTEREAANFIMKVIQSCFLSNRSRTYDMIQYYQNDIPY

[12] = target: LIM domain kinase 2 ; LIMK2 ; P53671 (Homo sapiens, UniProt P53671); parameters: species or system mixed lysate of K562, MV4-11, THP-1, NCI-H1155; conditions: DDA-MS residual binding; binder

Cyclin-dependent kinase 19 ; CDK19 ; Q9BWU1, sequence (Q9BWU1 whole entry, one chain of several): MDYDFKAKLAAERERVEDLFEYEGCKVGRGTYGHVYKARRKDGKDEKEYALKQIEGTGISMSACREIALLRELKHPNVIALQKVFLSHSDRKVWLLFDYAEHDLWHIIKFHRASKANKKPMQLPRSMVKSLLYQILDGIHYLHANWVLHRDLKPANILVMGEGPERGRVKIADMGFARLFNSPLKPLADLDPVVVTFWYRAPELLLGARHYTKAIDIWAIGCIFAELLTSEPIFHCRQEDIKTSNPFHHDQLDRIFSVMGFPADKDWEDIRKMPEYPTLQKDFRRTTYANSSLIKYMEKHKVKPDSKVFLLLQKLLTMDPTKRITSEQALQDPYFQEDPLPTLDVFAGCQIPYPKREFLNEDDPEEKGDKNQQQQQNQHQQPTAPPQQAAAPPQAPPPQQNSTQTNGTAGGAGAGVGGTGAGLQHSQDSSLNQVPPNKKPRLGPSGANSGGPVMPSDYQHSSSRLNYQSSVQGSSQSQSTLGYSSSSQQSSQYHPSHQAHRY

IC50 [1] [µM]	IC50 [2] [µM]	IC50 [3] [µM]	IC50 [4] [µM]	DDA-MS / % Intensity (30 µM/DMSO) [5] [%]	DDA-MS / % Intensity (30 µM/DMSO) [6] [%]	DDA-MS / % Intensity (30 µM/DMSO) [7] [%]	DDA-MS / % Intensity (30 µM/DMSO) [8] [%]	DDA-MS / % Intensity (30 µM/DMSO) [9] [%]	DDA-MS / % Intensity (30 µM/DMSO) [10] [%]	DDA-MS / % Intensity (30 µM/DMSO) [11] [%]	DDA-MS / % Intensity (30 µM/DMSO) [12] [%]	Structure (SMILES)
> 10	3.36	> 10	0.379	–	–	–	–	–	–	–	–	COc1cc(F)ccc1-c1ncnc(Nc2cccc(C[S@](C)(=N)=O)c2)n1 [BAY-1143572]
> 10	> 10	> 10	0.305	–	–	–	–	–	–	–	–	COc1cc(F)ccc1-c1cc(Nc2cc(CS(C)(=N)=O)ccn2)ncc1F (stereo not shown) [BAY-1251152]
–	–	–	–	0.4709	6.597	29.04	0.3688	1.698	2.041	10.66	7.37	Cc1nc(Nc2ncc(C(=O)Nc3c(C)cccc3Cl)s2)cc(N2CCN(CCO)CC2)n1 [dasatinib]
